Data reported in ChEMBL document CHEMBL3046716, “Design of potent human steroid 5-reductase inhibitors: 3D-QSAR CoMFA, CoMSIA and docking studies” (Med Chem Res, 2013).

Tests used:
[1] = species on record: Homo sapiens; experiment: Ratio of compound pIC50 to (4aR,4bS,6aS,7S,9aS,9bS,11aR)-N,N-diethyl-1,4a,6a-trimethyl-2-oxohexadecahydro-1H-indeno[5,4-f]quinoline-7-carboxamide pIC50 for human steroid 5alpha-reductase
[2] = species on record: Homo sapiens; experiment: Ratio of compound IC50 to (4aR,4bS,6aS,7S,9aS,9bS,11aR)-N,N-diethyl-1,4a,6a-trimethyl-2-oxohexadecahydro-1H-indeno[5,4-f]quinoline-7-carboxamide IC50 for human steroid 5alpha-reductase

In the case of `CNC(=O)[C@H]1CC[C@H]2[C@@H]3CC[C@H]4N(C)C(=O)CC[C@]4(C)[C@H]3CC[C@]12C`, the pIC50 [1] is reported as 6.55 and the Ratio IC50 [2] is reported as 28.

For `CN1C(=O)CC[C@]2(C)[C@H]3CC[C@]4(C)[C@@H](C(=O)N5CCOCC5)CC[C@H]4[C@@H]3CC[C@@H]12`, the pIC50 [1] was 7.25 and the Ratio IC50 [2] was 5.6.

Compound `CC(O)[C@H]1CC[C@H]2[C@@H]3CC[C@H]4N(C)C(=O)CC[C@]4(C)[C@H]3CC[C@]12C` (stereo not given in full) has a pIC50 [1] of 6.77 and a Ratio IC50 [2] of 17.

`CCN(CC)C(=O)[C@H]1CC[C@H]2[C@@H]3CC[C@H]4N(C)C(=O)CC[C@]4(C)[C@H]3CC[C@]12C` showed a pIC50 [1] of 8 and a Ratio IC50 [2] of 1.

With `CCN(CC)C(=O)[C@H]1CC[C@H]2[C@@H]3CC[C@H]4N(C)C(=O)[C@@H](C)C[C@]4(C)[C@H]3CC[C@]12C` the pIC50 [1] was 7.44 and the Ratio IC50 [2] was 3.6.

Work on `COC(=O)[C@H]1CC[C@H]2[C@@H]3CC[C@H]4N(C)C(=O)CC[C@]4(C)[C@H]3CC[C@]12C` yielded a pIC50 [1] of 6.77 and a Ratio IC50 [2] of 17.

`CN1C(=O)CC[C@]2(C)[C@H]3CC[C@]4(C)[C@@H](C(=O)NC(C)(C)C)CC[C@H]4[C@@H]3CC[C@@H]12` gave a pIC50 [1] of 7.96 and a Ratio IC50 [2] of 1.1.

`CC(C)CC(=O)[C@H]1CC[C@H]2[C@@H]3CC[C@H]4N(C)C(=O)CC[C@]4(C)[C@H]3CC[C@]12C` was tested, and the pIC50 [1] was 7.57 and the Ratio IC50 [2] was 2.7.

`CCCCCCCNC(=O)[C@H]1CC[C@H]2[C@@H]3CC[C@H]4N(C)C(=O)CC[C@]4(C)[C@H]3CC[C@]12C` was tested, and the pIC50 [1] was 7.4 and the Ratio IC50 [2] was 4.

In the case of `CCN(CC)C(=O)[C@H]1CC[C@H]2[C@@H]3CC[C@H]4N(C)C(=O)C[C@H](C)[C@]4(C)[C@H]3CC[C@]12C`, the pIC50 [1] is reported as 7.16 and the Ratio IC50 [2] is reported as 7.

`CCN(CC)C(=O)CC[C@@H](C)[C@H]1CC[C@H]2[C@@H]3CC[C@H]4N(C)C(=O)CC[C@]4(C)[C@H]3CC[C@]12C` showed a pIC50 [1] of 6.57 and a Ratio IC50 [2] of 27.

Compound `CC(C)(C)CC(C)(C)NC(=O)[C@H]1CC[C@H]2[C@@H]3CC[C@H]4NC(=O)CC[C@]4(C)[C@H]3CC[C@]12C` has a pIC50 [1] of 8.25 and a Ratio IC50 [2] of 0.56.

`CC(=O)[C@H]1CC[C@H]2[C@@H]3CC[C@H]4N(C)C(=O)CC[C@]4(C)[C@H]3CC[C@]12C` showed a pIC50 [1] of 6.57 and a Ratio IC50 [2] of 27.

In the case of `CCN(CC)C(=O)C[C@H]1CC[C@H]2[C@@H]3CC[C@H]4N(C)C(=O)CC[C@]4(C)[C@H]3CC[C@]12C`, the pIC50 [1] is reported as 7.7 and the Ratio IC50 [2] is reported as 2.

Compound `CCC(C)C(=O)[C@H]1CC[C@H]2[C@@H]3CC[C@H]4NC(=O)CC[C@]4(C)[C@H]3CC[C@]12C` (stereo not given in full) has a pIC50 [1] of 7.4 and a Ratio IC50 [2] of 4.

In the case of `CCN(CC)C(=O)CNC(=O)[C@H]1CC[C@H]2[C@@H]3CC[C@H]4N(C)C(=O)CC[C@]4(C)[C@H]3CC[C@]12C`, the pIC50 [1] is reported as 6.96 and the Ratio IC50 [2] is reported as 11.

`CCCCCNC(=O)[C@H]1CC[C@H]2[C@@H]3CC[C@H]4N(C)C(=O)CC[C@]4(C)[C@H]3CC[C@]12C` was tested, and the pIC50 [1] was 7.62 and the Ratio IC50 [2] was 2.4.

`CC(C)(C)OC(=O)[C@H]1CC[C@H]2[C@@H]3CC[C@H]4NC(=O)CC[C@]4(C)[C@H]3CC[C@]12C` was tested, and the pIC50 [1] was 7.07 and the Ratio IC50 [2] was 8.6.

For `CCN(CC)C(=O)[C@@H](C)[C@H]1CC[C@H]2[C@@H]3CC[C@H]4N(C)C(=O)CC[C@]4(C)[C@H]3CC[C@]12C`, the pIC50 [1] was 5.41 and the Ratio IC50 [2] was 390.

`CN1C(=O)CC[C@]2(C)[C@H]3CC[C@]4(C)[C@@H](C(=O)NC(C)(C)CC(C)(C)C)CC[C@H]4[C@@H]3CC[C@@H]12` showed a pIC50 [1] of 8.28 and a Ratio IC50 [2] of 0.52.

`C[C@]12CCC(=O)N[C@@H]1CC[C@@H]1[C@@H]2CC[C@]2(C)[C@@H](C(=O)c3ccco3)CC[C@@H]12` showed a pIC50 [1] of 7.44 and a Ratio IC50 [2] of 3.6.

`CCN(CCO)C(=O)[C@H]1CC[C@H]2[C@@H]3CC[C@H]4N(C)C(=O)CC[C@]4(C)[C@H]3CC[C@]12C` was tested, and the pIC50 [1] was 7.52 and the Ratio IC50 [2] was 3.

Work on `CN1C(=O)CC[C@]2(C)[C@H]3CC[C@@]4(C)[C@@H](CC[C@@]45CCCO5)[C@@H]3CC[C@@H]12` yielded a pIC50 [1] of 5.84 and a Ratio IC50 [2] of 144.

`CC(C)NC(=O)[C@H]1CC[C@H]2[C@@H]3CC[C@H]4N(C)C(=O)CC[C@]4(C)[C@H]3CC[C@]12C` gave a pIC50 [1] of 7.4 and a Ratio IC50 [2] of 4.

`CCOC(=O)C[C@H]1CC[C@H]2[C@@H]3CC[C@H]4N(C)C(=O)CC[C@]4(C)[C@H]3CC[C@]12C` gave a pIC50 [1] of 6.54 and a Ratio IC50 [2] of 29.

For `CC(C)(C)NC(=O)[C@H]1CC[C@H]2[C@@H]3CC[C@H]4NC(=O)CC[C@]4(C)[C@H]3CC[C@]12C`, the pIC50 [1] was 7.77 and the Ratio IC50 [2] was 1.7.

For `CN1C(=O)CC[C@]2(C)[C@H]3CC[C@]4(C)[C@@H](C#N)CC[C@H]4[C@@H]3CC[C@@H]12`, the pIC50 [1] was 6.08 and the Ratio IC50 [2] was 83.

For `CN1C(=O)CC[C@]2(C)[C@H]3CC[C@]4(C)[C@@H](C(=O)NC(C)(C)CO)CC[C@H]4[C@@H]3CC[C@@H]12`, the pIC50 [1] was 7.7 and the Ratio IC50 [2] was 2.

In the case of `CCN(CC)C(=O)[C@H]1CC[C@H]2[C@@H]3CC[C@H]4N(C)C(=O)[C@@H]5O[C@@H]5[C@]4(C)[C@H]3CC[C@]12C`, the pIC50 [1] is reported as 6.2 and the Ratio IC50 [2] is reported as 63.

In the case of `CCNC(=O)[C@H]1CC[C@H]2[C@@H]3CC[C@H]4N(C)C(=O)CC[C@]4(C)[C@H]3CC[C@]12C`, the pIC50 [1] is reported as 7.03 and the Ratio IC50 [2] is reported as 9.4.

`C[C@]12CCC(=O)N[C@@H]1CC[C@@H]1[C@@H]2CC[C@]2(C)[C@@H](C(N)=O)CC[C@@H]12` was tested, and the pIC50 [1] was 5.82 and the Ratio IC50 [2] was 150.

With `CCN(CC)C(=O)[C@H]1CC[C@H]2[C@@H]3CC[C@H]4NC(=O)CC[C@]4(C)[C@H]3CC[C@]12C` the pIC50 [1] was 7.92 and the Ratio IC50 [2] was 1.2.

`COC(=O)[C@H]1CC[C@H]2[C@@H]3CC[C@H]4NC(=O)CC[C@]4(C)[C@H]3CC[C@]12C` showed a pIC50 [1] of 6.38 and a Ratio IC50 [2] of 42.

`CCCCCCCNC(=O)[C@H]1CC[C@H]2[C@@H]3CC[C@H]4NC(=O)CC[C@]4(C)[C@H]3CC[C@]12C` gave a pIC50 [1] of 7.62 and a Ratio IC50 [2] of 2.4.

`CC(C)N(C(=O)[C@H]1CC[C@H]2[C@@H]3CC[C@H]4N(C)C(=O)CC[C@]4(C)[C@H]3CC[C@]12C)C(C)C` was tested, and the pIC50 [1] was 8.09 and the Ratio IC50 [2] was 0.82.

`CCN(CC)C(=O)[C@H]1CC[C@H]2[C@@H]3CC[C@H]4N(C)C(=O)[C@@H](F)C[C@]4(C)[C@H]3CC[C@]12C` showed a pIC50 [1] of 7.3 and a Ratio IC50 [2] of 5.

`CN1C(=O)CC[C@]2(C)[C@H]3CC[C@]4(C)[C@@H](C(=O)SC(C)(C)C)CC[C@H]4[C@@H]3CC[C@@H]12` was tested, and the pIC50 [1] was 6.33 and the Ratio IC50 [2] was 47.

For `C[C@]12CCC(=O)N[C@@H]1CC[C@@H]1[C@@H]2CC[C@@]2(C)[C@H]1CC[C@@]21CCCO1`, the pIC50 [1] was 5.13 and the Ratio IC50 [2] was 735.

Work on `CC(C)CC(=O)[C@H]1CC[C@H]2[C@@H]3CC[C@H]4NC(=O)CC[C@]4(C)[C@H]3CC[C@]12C` yielded a pIC50 [1] of 7.38 and a Ratio IC50 [2] of 4.2.

Work on `C[C@H](CO)[C@H]1CC[C@H]2[C@@H]3CC[C@H]4N(C)C(=O)CC[C@]4(C)[C@H]3CC[C@]12C` yielded a pIC50 [1] of 6.82 and a Ratio IC50 [2] of 15.

With `CCN(CC)C(=O)[C@H]1CC[C@H]2[C@@H]3CC[C@H]4N(C)C(=O)C(OC)(OC)C[C@]4(C)[C@H]3CC[C@]12C` the pIC50 [1] was 6.55 and the Ratio IC50 [2] was 28.

`CN1C(=O)CC[C@]2(C)[C@H]3CC[C@]4(C)[C@@H](C(=O)c5ccco5)CC[C@H]4[C@@H]3CC[C@@H]12` showed a pIC50 [1] of 7.7 and a Ratio IC50 [2] of 2.

Work on `CCN(CC)C(=O)[C@H]1CC[C@H]2[C@@H]3CC[C@H]4N(C)C(=O)[C@@H]5C[C@@H]5[C@]4(C)[C@H]3CC[C@]12C` yielded a pIC50 [1] of 7.89 and a Ratio IC50 [2] of 1.3.

In the case of `CN1C(=O)CC[C@]2(C)[C@H]3CC[C@]4(C)[C@@H](C5=NCCO5)CC[C@H]4[C@@H]3CC[C@@H]12`, the pIC50 [1] is reported as 6.96 and the Ratio IC50 [2] is reported as 11.

`COC(CNC(=O)[C@H]1CC[C@H]2[C@@H]3CC[C@H]4NC(=O)CC[C@]4(C)[C@H]3CC[C@]12C)OC` showed a pIC50 [1] of 6.7 and a Ratio IC50 [2] of 20.

For `COC(=O)[C@H](C)[C@H]1CC[C@H]2[C@@H]3CC[C@H]4N(C)C(=O)CC[C@]4(C)[C@H]3CC[C@]12C`, the pIC50 [1] was 5.84 and the Ratio IC50 [2] was 143.

Work on `CC(C)N(C(=O)[C@H]1CC[C@H]2[C@@H]3CC[C@H]4NC(=O)CC[C@]4(C)[C@H]3CC[C@]12C)C(C)C` yielded a pIC50 [1] of 7.82 and a Ratio IC50 [2] of 1.5.

Compound `CN1C(=O)CC[C@]2(C)[C@H]3CC[C@]4(C)[C@@H](C5=NC(C)(C)CO5)CC[C@H]4[C@@H]3CC[C@@H]12` has a pIC50 [1] of 5.9 and a Ratio IC50 [2] of 125.

`CCN(CC)C(=O)/C=C1/CC[C@H]2[C@@H]3CC[C@H]4N(C)C(=O)CC[C@]4(C)[C@H]3CC[C@]12C` showed a pIC50 [1] of 7.82 and a Ratio IC50 [2] of 1.5.

For `CCN(CC)C(=O)[C@H]1CC[C@H]2[C@@H]3CC[C@H]4N(C)C(=O)[C@@H](OC)C[C@]4(C)[C@H]3CC[C@]12C`, the pIC50 [1] was 6.82 and the Ratio IC50 [2] was 15.
